Species on record: Rattus norvegicus
Assay: Open TG-GATES - Regimen: Single
Assay type: toxicity, organism-based, Sprague-Dawley
Parameters: regimen Single, gender Male, age 6 weeks
Settings: in vivo, po, route gavage; for APTT / Bas / Eos / Fbg / Hb / Ht / Lym / MCH / MCHC / MCV / Mono / Neu / PT / Plat / RBC / Ret / WBC: tissue Blood; for KIDNEY_L / KIDNEY_R / KIDNEY_TOTAL: tissue Kidney; for LIVER: tissue Liver; for A/G / ALP / ALT / AST / BUN / CRE / Ca / Cl / DBIL / GLC / IP / K / LDH / Na / PL / RALB / TBIL / TC / TG / TP / gamma-GTP: tissue Plasma
[1] = 300 mg/kg, 3 h, dose level Middle
[2] = 300 mg/kg, 6 h, dose level Middle
[3] = 300 mg/kg, 9 h, dose level Middle
[4] = 300 mg/kg, 24 h, dose level Middle
[5] = 1000 mg/kg, 3 h, dose level High
[6] = 1000 mg/kg, 6 h, dose level High
[7] = 1000 mg/kg, 9 h, dose level High
[8] = 1000 mg/kg, 24 h, dose level High

## O=C(O)COc1nn(Cc2ccccc2)c2ccccc12 [BENDAZAC]
[1]
  TERMINAL_BW: 210.1 g
  APTT: 17.4 s
  Bas: 0%
  Eos: 1%
  Fbg: 206.8 mg/dL
  Hb: 13.9 g/dL
  Ht: 41.6%
  Lym: 80.4%
  MCH: 21.7 pg
  MCHC: 33.5%
  MCV: 64.7 fL
  Mono: 5.2%
  Neu: 13.4%
  PT: 11.7 s
  Plat: 116.9 x10_4/uL
  RBC: 643.4 x10_4/ul
  Ret: 9.9%
  WBC: 91 x10_2/uL
  KIDNEY_L: 1 g
  KIDNEY_R: 1 g
  KIDNEY_TOTAL: 2 g
  LIVER: 9.4 g
  A/G: 2.1
  ALP: 1450 IU/L
  ALT: 35.6 IU/L
  AST: 69.2 IU/L
  BUN: 11.8 mg/dL
  CRE: 0.5 mg/dL
  Ca: 10.6 mg/dL
  Cl: 101 meq/L
  DBIL: 0.014 mg/dL
  GLC: 189.2 mg/dL
  IP: 10.5 mg/dL
  K: 4.9 meq/L
  LDH: 105 IU/L
  Na: 139.4 meq/L
  PL: 124.4 mg/dL
  RALB: 3.6 g/dL
  TBIL: 1.3 mg/dL
  TC: 71.6 mg/dL
  TG: 46 mg/dL
  TP: 5.4 g/dL
  gamma-GTP: 1 IU/L
[2]
  TERMINAL_BW: 207.7 g
  APTT: 17.2 s
  Bas: 0%
  Eos: 1.4%
  Fbg: 214.8 mg/dL
  Hb: 13.9 g/dL
  Ht: 41.7%
  Lym: 78.2%
  MCH: 21.7 pg
  MCHC: 33.3%
  MCV: 65.1 fL
  Mono: 7.8%
  Neu: 13%
  PT: 11.9 s
  Plat: 119.6 x10_4/uL
  RBC: 641.8 x10_4/ul
  Ret: 11.7%
  WBC: 98.8 x10_2/uL
  KIDNEY_L: 1 g
  KIDNEY_R: 1 g
  KIDNEY_TOTAL: 2 g
  LIVER: 8.9 g
  A/G: 2.3
  ALP: 3422.2 IU/L
  ALT: 30.2 IU/L
  AST: 60.8 IU/L
  BUN: 8.8 mg/dL
  CRE: 0.6 mg/dL
  Ca: 10.9 mg/dL
  Cl: 101.8 meq/L
  DBIL: 0.066 mg/dL
  GLC: 189.6 mg/dL
  IP: 10.7 mg/dL
  K: 4.9 meq/L
  LDH: 97 IU/L
  Na: 141.2 meq/L
  PL: 135.4 mg/dL
  RALB: 3.8 g/dL
  TBIL: 1.5 mg/dL
  TC: 78.2 mg/dL
  TG: 27 mg/dL
  TP: 5.4 g/dL
  gamma-GTP: 1 IU/L
[3]
  TERMINAL_BW: 200.4 g
  APTT: 17.2 s
  Bas: 0%
  Eos: 1%
  Fbg: 205 mg/dL
  Hb: 14 g/dL
  Ht: 41.8%
  Lym: 81.8%
  MCH: 22.3 pg
  MCHC: 33.4%
  MCV: 66.8 fL
  Mono: 5.2%
  Neu: 12%
  PT: 11.8 s
  Plat: 121.4 x10_4/uL
  RBC: 626.2 x10_4/ul
  Ret: 8.8%
  WBC: 86.7 x10_2/uL
  KIDNEY_L: 0.9 g
  KIDNEY_R: 1 g
  KIDNEY_TOTAL: 1.9 g
  LIVER: 7.8 g
  A/G: 2.1
  ALP: 2047.2 IU/L
  ALT: 29 IU/L
  AST: 60.2 IU/L
  BUN: 9.6 mg/dL
  CRE: 0.6 mg/dL
  Ca: 10.3 mg/dL
  Cl: 103.6 meq/L
  DBIL: 0.028 mg/dL
  GLC: 183.8 mg/dL
  IP: 10 mg/dL
  K: 4.7 meq/L
  LDH: 94.4 IU/L
  Na: 143 meq/L
  PL: 126 mg/dL
  RALB: 3.7 g/dL
  TBIL: 1.2 mg/dL
  TC: 72.4 mg/dL
  TG: 39.4 mg/dL
  TP: 5.5 g/dL
  gamma-GTP: 1.2 IU/L
[4]
  TERMINAL_BW: 220.3 g
  APTT: 16.8 s
  Bas: 0%
  Eos: 1%
  Fbg: 208.6 mg/dL
  Hb: 13.6 g/dL
  Ht: 40.7%
  Lym: 78.6%
  MCH: 21.3 pg
  MCHC: 33.3%
  MCV: 63.9 fL
  Mono: 9.6%
  Neu: 11%
  PT: 12.2 s
  Plat: 120.5 x10_4/uL
  RBC: 637.8 x10_4/ul
  Ret: 8%
  WBC: 98.3 x10_2/uL
  KIDNEY_L: 1 g
  KIDNEY_R: 1 g
  KIDNEY_TOTAL: 2 g
  LIVER: 11.3 g
  A/G: 2.2
  ALP: 1529.6 IU/L
  ALT: 39 IU/L
  AST: 71.2 IU/L
  BUN: 19.8 mg/dL
  CRE: 0.6 mg/dL
  Ca: 11 mg/dL
  Cl: 104 meq/L
  DBIL: 0.006 mg/dL
  GLC: 187.2 mg/dL
  IP: 6.3 mg/dL
  K: 4.5 meq/L
  LDH: 123.4 IU/L
  Na: 140 meq/L
  PL: 132 mg/dL
  RALB: 3.8 g/dL
  TBIL: 1 mg/dL
  TC: 66.8 mg/dL
  TG: 111 mg/dL
  TP: 5.5 g/dL
  gamma-GTP: 1 IU/L
[5]
  TERMINAL_BW: 213.4 g
  APTT: 16.9 s
  Bas: 0%
  Eos: 1.2%
  Fbg: 207.6 mg/dL
  Hb: 13.6 g/dL
  Ht: 40.3%
  Lym: 74%
  MCH: 21.9 pg
  MCHC: 33.7%
  MCV: 65.1 fL
  Mono: 7.8%
  Neu: 16.8%
  PT: 11.3 s
  Plat: 130.3 x10_4/uL
  RBC: 620.2 x10_4/ul
  Ret: 12%
  WBC: 92.8 x10_2/uL
  KIDNEY_L: 1 g
  KIDNEY_R: 1 g
  KIDNEY_TOTAL: 2 g
  LIVER: 9.7 g
  A/G: 2.2
  ALP: 1482.6 IU/L
  ALT: 35.2 IU/L
  AST: 67.8 IU/L
  BUN: 12.2 mg/dL
  CRE: 0.5 mg/dL
  Ca: 10.6 mg/dL
  Cl: 100.2 meq/L
  DBIL: 0.04 mg/dL
  GLC: 195.2 mg/dL
  IP: 10.1 mg/dL
  K: 4.8 meq/L
  LDH: 99.8 IU/L
  Na: 140 meq/L
  PL: 133.6 mg/dL
  RALB: 3.7 g/dL
  TBIL: 1.4 mg/dL
  TC: 73.2 mg/dL
  TG: 42.2 mg/dL
  TP: 5.4 g/dL
  gamma-GTP: 1.2 IU/L
[6]
  TERMINAL_BW: 205.5 g
  APTT: 17.1 s
  Bas: 0%
  Eos: 1.2%
  Fbg: 215.4 mg/dL
  Hb: 14 g/dL
  Ht: 41.8%
  Lym: 68.2%
  MCH: 22.1 pg
  MCHC: 33.5%
  MCV: 66 fL
  Mono: 8%
  Neu: 23.4%
  PT: 11.8 s
  Plat: 126.4 x10_4/uL
  RBC: 633.4 x10_4/ul
  Ret: 14.3%
  WBC: 86.8 x10_2/uL
  KIDNEY_L: 0.9 g
  KIDNEY_R: 0.9 g
  KIDNEY_TOTAL: 1.9 g
  LIVER: 8.6 g
  A/G: 2.1
  ALP: 2888.2 IU/L
  ALT: 33.8 IU/L
  AST: 67.4 IU/L
  BUN: 10.6 mg/dL
  CRE: 0.6 mg/dL
  Ca: 10.5 mg/dL
  Cl: 100 meq/L
  DBIL: 0.046 mg/dL
  GLC: 189.8 mg/dL
  IP: 10.8 mg/dL
  K: 4.5 meq/L
  LDH: 114.6 IU/L
  Na: 141 meq/L
  PL: 138 mg/dL
  RALB: 3.7 g/dL
  TBIL: 1.5 mg/dL
  TC: 83 mg/dL
  TG: 21.2 mg/dL
  TP: 5.4 g/dL
  gamma-GTP: 0.8 IU/L
[7]
  TERMINAL_BW: 202.5 g
  APTT: 17.9 s
  Bas: 0%
  Eos: 1%
  Fbg: 213.4 mg/dL
  Hb: 13.6 g/dL
  Ht: 40.7%
  Lym: 79.6%
  MCH: 21.7 pg
  MCHC: 33.5%
  MCV: 64.9 fL
  Mono: 7.4%
  Neu: 12.2%
  PT: 11.8 s
  Plat: 120.8 x10_4/uL
  RBC: 627.8 x10_4/ul
  Ret: 8%
  WBC: 71.1 x10_2/uL
  KIDNEY_L: 0.9 g
  KIDNEY_R: 1 g
  KIDNEY_TOTAL: 1.9 g
  LIVER: 7.9 g
  A/G: 2.1
  ALP: 5387.2 IU/L
  ALT: 28 IU/L
  AST: 63.6 IU/L
  BUN: 11.2 mg/dL
  CRE: 0.6 mg/dL
  Ca: 10.3 mg/dL
  Cl: 100.8 meq/L
  DBIL: 0.032 mg/dL
  GLC: 177.6 mg/dL
  IP: 10 mg/dL
  K: 4.6 meq/L
  LDH: 92.8 IU/L
  Na: 141.6 meq/L
  PL: 129.8 mg/dL
  RALB: 3.7 g/dL
  TBIL: 1.5 mg/dL
  TC: 75.8 mg/dL
  TG: 30.2 mg/dL
  TP: 5.5 g/dL
  gamma-GTP: 1 IU/L
[8]
  TERMINAL_BW: 203.6 g
  APTT: 16.8 s
  Bas: 0%
  Eos: 1.6%
  Fbg: 193 mg/dL
  Hb: 14 g/dL
  Ht: 41.8%
  Lym: 77%
  MCH: 21.6 pg
  MCHC: 33.4%
  MCV: 64.6 fL
  Mono: 6.6%
  Neu: 15.2%
  PT: 13.1 s
  Plat: 133.3 x10_4/uL
  RBC: 647.6 x10_4/ul
  Ret: 10.7%
  WBC: 92.1 x10_2/uL
  KIDNEY_L: 1 g
  KIDNEY_R: 1 g
  KIDNEY_TOTAL: 1.9 g
  LIVER: 9 g
  A/G: 2.4
  ALP: 6419.2 IU/L
  ALT: 31.2 IU/L
  AST: 58 IU/L
  BUN: 12.6 mg/dL
  CRE: 0.7 mg/dL
  Ca: 10.7 mg/dL
  Cl: 99 meq/L
  DBIL: 0.056 mg/dL
  GLC: 180.6 mg/dL
  IP: 8.6 mg/dL
  K: 4.3 meq/L
  LDH: 104.4 IU/L
  Na: 140.2 meq/L
  PL: 110.8 mg/dL
  RALB: 3.9 g/dL
  TBIL: 1.9 mg/dL
  TC: 63.8 mg/dL
  TG: 31.6 mg/dL
  TP: 5.5 g/dL
  gamma-GTP: 0.8 IU/L
